Measurements as given in ChEMBL document CHEMBL5113433, “Biological evaluation for anti-inflammatory effect of africane-type sesquiterpenoids” (Bioorg Med Chem, 2022).
The source made the active and inactive calls. The calls are words filed in the database; no cut-off is given here.

Experiments:
RAW264.7 [1] = experiment: Antiinflammatory activity in LPS-induced mouse RAW264.7 cells assessed as decrease in IL-1beta expression at 6 uM pretreated for 2 hrs followed by stimulation with LPS for 6 hrs by Western blot analysis; assay type: functional, cell-based
RAW264.7 [2] = experiment: Antiinflammatory activity in LPS-induced mouse RAW264.7 cells assessed as decrease in IL-6 expression at 6 uM pretreated for 2 hrs followed by stimulation with LPS for 6 hrs by RT-PCR analysis; assay type: functional, cell-based
RAW264.7 [3] = experiment: Antiinflammatory activity in LPS-induced mouse RAW264.7 cells assessed as decrease in COX-2 expression at 10 uM pretreated for 2 hrs followed by stimulation with LPS for 22 hrs by Western blot analysis; assay type: functional, cell-based; settings: time 24.0 hrs
RAW264.7 [4] = experiment: Antiinflammatory activity in LPS-induced mouse RAW264.7 cells assessed as decrease in COX-2 expression pretreated for 2 hrs followed by stimulation with LPS for 22 hrs by Western blot analysis; assay type: functional, cell-based
[5] = Cytotoxicity against mouse RAW264.7 cells assessed as cell viability after 24 hrs by MTT assay; assay type: toxicity, cell-based
RAW264.7 [6] = experiment: Antiinflammatory activity in LPS-induced mouse RAW264.7 cells assessed as decrease in IL-6 expression at 6 uM pretreated for 2 hrs followed by stimulation with LPS for 6 hrs by Western blot analysis; assay type: functional, cell-based; settings: time 8.0 hrs
RAW264.7 [7] = experiment: Antiinflammatory activity in LPS-induced mouse RAW264.7 cells assessed as decrease in IL-1beta expression at 6 uM pretreated for 2 hrs followed by stimulation with LPS for 6 hrs by RT-PCR analysis; assay type: functional, cell-based

For CC(=O)OC[C@@]1(O)CC[C@@H]2[C@@H]1CC(C)(C)C[C@H]1C[C@]12C, the Activity (RAW264.7 [1]) was “Active”, the Activity (RAW264.7 [2]) was “Active” and the Activity (RAW264.7 [3]) was “Active”. For the same compound, the IC50 (RAW264.7 [4]; Mus musculus, RAW264.7) was 4.61 µM, the IC50 at 24 h [5] was over 10 µM and the Activity (RAW264.7 [6]) was “Active”. For the same compound, the Activity (RAW264.7 [7]) was “Active”.
In the case of CC(=O)OCC1(O)CCC2C1CC(C)(C)CC1CC12C (single isomer, unassigned; (+)) [listing 1 of 2 here], the Activity (RAW264.7 [1]) is reported as “Active”, the Activity (RAW264.7 [2]) is reported as “Active” and the Activity (RAW264.7 [3]) is reported as “Active”. For the same compound, the Activity (RAW264.7 [6]) was “Active” and the Activity (RAW264.7 [7]) was “Active”.
Compound CC(=O)OCC1(O)CCC2C1CC(C)(C)CC1CC12C (single isomer, unassigned; (-)) [listing 1 of 2 here] has an IC50 (RAW264.7 [4]; raw264.7) of 8.18 µM.
With CC(=O)OC[C@]1(O)CC[C@@H]2[C@@H]1CC(C)(C)C[C@H]1C[C@]12C the Activity (RAW264.7 [3]) was “Active”.
In the case of CC(=O)OCC1(O)CCC2C1CC(C)(C)CC1CC12C (single isomer, unassigned; (-)) [listing 2 of 2 here], the Activity (RAW264.7 [1]) is reported as “Active”, the Activity (RAW264.7 [2]) is reported as “Active” and the Activity (RAW264.7 [3]) is reported as “Active”. For the same compound, the Activity (RAW264.7 [6]) was “Active” and the Activity (RAW264.7 [7]) was “Active”.
For CC(=O)OCC1(O)CCC2C1CC(C)(C)CC1CC12C (single isomer, unassigned; (+)) [listing 2 of 2 here], the IC50 (RAW264.7 [4]; Mus musculus, RAW264.7) was 6.64 µM and the IC50 at 24 h [5] was over 10 µM.
With C=CCC(C)(C)C[C@@H]1C(=O)CC[C@H]1C(=C)C the Activity (RAW264.7 [1]) was “Active”, the Activity (RAW264.7 [2]) was “Active” and the Activity (RAW264.7 [3]) was “Active”. For the same compound, the IC50 (RAW264.7 [4]; Mus musculus, RAW264.7) was 8.17 µM, the IC50 at 24 h [5] was over 10 µM and the Activity (RAW264.7 [6]) was “Active”. The Activity (RAW264.7 [7]) was “Active”.
